≈ marks a conversion by molar mass, not a printed value.
What was measured:
[1] = system: Escherichia coli R477-100; test: Antibacterial activity, MIC by double-microdilution method; type: cell-based; details: for MIC: R477100, read-out: Gram-negative MIC a; for MIC / Gram-negative MIC a: Table 2, without DTT
Escherichia coli 25922 = test: as above; type: cell-based; details: for MIC / Gram-negative MIC b: Table 2, Escherichia coli 25922; for MIC: read-out: Gram-negative MIC b
[2] = system: Staphylococcus Epidermidis; test: as above; type: cell-based; details: for MIC: Table 2, read-out: Gram-positive MIC c; for Gram-positive MIC c: Table 2
Bacillus Subtilis = test: as above; type: cell-based; details: for MIC / Gram-positive MIC d: Table 2, Bacillus Subtilis; for MIC: read-out: Gram-positive MIC d
E. coli DNA gyrase [3] = target: T1, E. coli DNA gyrase (Escherichia coli, UniProt P0AES4+P0AES6); test: E. coli Gyrase-DNA supercoiling assay; type: biochemical; details: supercoiling of relaxed pHOT-1 plasmid in presence of ATP; 37° C., 60 minutes
T1 construct: purchased TopoGEN
T1 sequence (P0AES4 whole entry, one chain of several): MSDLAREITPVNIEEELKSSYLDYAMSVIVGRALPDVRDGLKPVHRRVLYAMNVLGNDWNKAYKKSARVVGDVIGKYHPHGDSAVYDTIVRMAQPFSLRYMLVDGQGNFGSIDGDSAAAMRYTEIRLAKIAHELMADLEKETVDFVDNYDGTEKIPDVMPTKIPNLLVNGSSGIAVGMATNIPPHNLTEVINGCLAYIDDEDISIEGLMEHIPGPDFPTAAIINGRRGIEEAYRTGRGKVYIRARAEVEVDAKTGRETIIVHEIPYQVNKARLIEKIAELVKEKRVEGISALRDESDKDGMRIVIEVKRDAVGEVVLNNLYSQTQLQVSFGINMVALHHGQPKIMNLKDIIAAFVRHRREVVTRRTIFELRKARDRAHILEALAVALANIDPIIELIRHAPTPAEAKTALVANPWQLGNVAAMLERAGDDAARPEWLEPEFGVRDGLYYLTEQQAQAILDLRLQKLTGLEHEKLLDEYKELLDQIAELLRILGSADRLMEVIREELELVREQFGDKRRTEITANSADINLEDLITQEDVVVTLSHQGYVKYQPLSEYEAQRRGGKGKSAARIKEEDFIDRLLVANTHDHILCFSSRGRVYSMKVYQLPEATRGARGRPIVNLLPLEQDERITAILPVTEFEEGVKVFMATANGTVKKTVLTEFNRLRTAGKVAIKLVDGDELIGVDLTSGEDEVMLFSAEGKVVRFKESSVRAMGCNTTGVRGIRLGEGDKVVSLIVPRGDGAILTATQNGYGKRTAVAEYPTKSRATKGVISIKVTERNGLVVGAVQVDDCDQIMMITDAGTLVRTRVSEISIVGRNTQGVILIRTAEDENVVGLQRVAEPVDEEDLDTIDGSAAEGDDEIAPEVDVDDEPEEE
Experimental: The DNA supercoiling reactions were based on the manufacturer protocol (TopoGEN). The amount of DNA gyrase used in each assay was optimized by testing various dilutions of the stock. The amount sufficient to supercoil 250 nanograms (ng) of the substrate in 1 hour at 37° C. was then used for testing the compounds (1.1 U as defined by manufacturer). Assays (30 μL) contained 250 nanograms of relaxed pHOT1 plasmid DNA in Tris-HCl buffer (35 mM), pH 7.5, containing KCl (24 mM), MgCl2 (4 mM), DTT (2 mM), Spermidine (1.8 mM), ATP (1 mM), 6.5% (w/v) glycerol and bovine serum albumin (0.1 mg/ml). Reactions were incubated at 37° C. for 60 minutes. Reaction mixtures were stopped by the addition of 30 μL of loading buffer (40% sucrose, 100 mM Tris·HCl (pH 7.5), 1 mM EDTA, 0.5 mg×mL^−1 bromophenol blue) and worked up using 30 μL of 24:1 chloroform/isoamyl alcohol mixture; the aqueous layer was then analyzed using electrophoresis.
Electrophoresis, gel staining, DNA visualization and DNA quantification were performed as described for the DNA cleavage assays.

E. coli DNA gyrase [4] = target: T1, E. coli DNA gyrase; test: E. coli Gyrase-DNA cleavage assay; type: biochemical; details: for linearization of supercoiled DNA with DNA gyrase, after Proteinase K / generation of linear DNA with DNA gyrase, without Proteinase K: absence of ATP; for linearization of supercoiled DNA with DNA gyrase, after Proteinase K: second incubation with SDS and Proteinase K; for generation of linear DNA with DNA gyrase, without Proteinase K / concentration of maximum linear DNA (bell-shaped profile): without Proteinase K treatment; for generation of linear DNA with DNA gyrase, without Proteinase K: buffer with DTT
Experimental: E. coli gyrase enzyme was purchased from TopoGEN and the DNA cleavage reactions were based on the protocol of Inspiralis. Assays (30 μL) contained supercoiled (+) pHOT1 plasmid (200 nanograms) and DNA gyrase (5 U as defined by manufacturer) in 35 mM Tris-HCl (pH 7.5), 24 mM KCl, 4 mM MgCl2, 2 mM DTT, 1.8 mM Spermidine, 6.5% (w/v) glycerol and 0.1 mg/mL bovine serum albumin. Reactions were incubated at 37° C. for 60 minutes. Enzyme-DNA cleavage complexes were trapped by adding 3 μL of 2% SDS. Following this, 1.5 μL of 10 mg/mL Proteinase K (Sigma-Aldrich) was added (where relevant) and the reaction mixtures were incubated at 37° C. for 30 minutes to digest the enzyme gyrase. Samples were mixed with 30 μL of loading buffer (40% sucrose, 100 mM Tris-HCl (pH 7.5), 1 mM EDTA, 0.5 mg-ml-1 bromophenol blue) and worked up using 30 μL of 24:1 chloroform/isoamyl alcohol mixture; the aqueous layer was then analyzed using electrophoresis. Electrophoresis, gel staining, DNA visualization and DNA quantification were performed as described for the DNA cleavage assays. DNA double stranded cleavage was monitored by the conversion of supercoiled plasmid to linear DNA and quantified in comparison to a control drug-free reaction.
To investigate the mechanism of inhibition, a DNA gyrase-induced DNA cleavage assay was performed in the absence of ATP. In this assay, the production of linear DNA from supercoiled DNA is measured as a function of compound concentration. […] Consequently, for the purposes of this assay, it is necessary to perform a second incubation of the reaction mixture with SDS and Proteinase K, which enables the digestion of the DNA gyrase enzyme and thereby ‘frees’ the linear DNA (Form III) so that it moves during electrophoresis.

[5] = system: Gram-negative and Gram-positive bacteria; test: Comparative antibacterial activity, all tested bacteria; type: cell-based; details: MIC, Table 2 and 3
Experimental: Comparative antibacterial activities were determined by measuring the MIC values by using the double-microdilution method according to the National Committee for Clinical Laboratory Standards (NCCLS). The Luria-Bertani growth medium and polypropylene 96-well plates (Thermo) were used unless otherwise stated. All the experiments were performed in triplicate, and analogous results were obtained in three different experiments.
Compounds 1-6 and their Cu(II) and Co(III) complexes, as well as the pendant-bearing compounds 19-23 and 26 were tested for their comparative antibacterial activity by determining MIC values against two Gram-negative E. coli strains (AR477-100 and 25922) and two Gram-positive strains, Staphylococcus Epidermidis, and Bacillus Subtilis.

[6] = system: supercoiled (+) pHOT-1 plasmid DNA; test: DNA cleavage assay (gel electrophoresis); type: biochemical; details: for DNase activity (cleavage of supercoiled plasmid, form I to form II): absence of adjuvants, HEPES buffer (50 mM, pH 7.4), 5 hours; for concentration giving almost complete smearing of the DNA (multiply nicked DNA): ascorbic acid (0.32 mM), HEPES pH 7.4, 2 hours
Experimental: Removal of Ligands Prior to Electrophoresis was performed when more than 100 μM of Cu(II)-ligand or Co(III) ligand (at any concentration) complexes were employed that is, for DNA cleavage assays that were performed in the absence of any adjuvants. An Amberlyst® 15 (Sigma Aldrich) ion-exchange resin was prepared according to the reported literature [Hettich et al. J. Am. Chem. Soc. 1997, 119 (24), 5638-5647] and stored at −20° C. Before use, 0.5 gram of the exchanger was mixed with 250 μL of water. After stopping the DNA-cleavage reaction by addition of EDTA (54 mM, 15 minutes incubation at 37° C.), 10 μL of the exchanger suspension was added, vortexed, and incubated at 37° C. for 15 minutes before centrifugation and electrophoresis.
DNA cleavage activity of the tested Complexes towards supercoiled (+) pHOT-1 plasmid DNA (TopoGEN) was monitored by gel electrophoresis. In a typical experiment, plasmid DNA (200 ng, […]) in HEPES buffer (50 mM, pH 7.4) was mixed with different concentrations of a tested metal complex in the presence or absence of ascorbic acid (0.32 mM). All stock solutions of buffers and of the metal complexes were prepared using HPLC grade water (ChromAR®). Molecular biology reagent grade water (Sigma) was added up to a total reaction volume of 30 μL before incubation for a given time. For the ascorbic acid assays, the reaction was quenched immediately after incubation with EDTA (54 mM). For analysis, 10 μL of loading buffer (40% sucrose, 100 mM Tris-HCl (pH 7.5), 1 mM EDTA, 0.5 mg·mL^−1 bromophenol blue) was added to the incubated solution and loaded onto an agarose (SeaKem LE) gel [1% in TAE×1 buffer (40 mM Tris, 20 mM acetic acid, 1 mM EDTA)]. Electrophoresis was carried out at 60 V for 2 hours. Gels were stained with 1 μg·mL^−1 ethidium bromide for 30 minutes and de-stained in TAE×1 buffer. DNA bands were visualized with medium-range ultraviolet light using Bio-Rad Gel Doc XR+ imaging system. The quantity of different DNA forms (I or II) was estimated using ImageJ software.
Chem. 2015, 2015 (28), 4722-4730; Kashiba-Iwatsuki et al. FEBS Lett. 1996, 389 (2), 149-15].
The copper complex of compound 2 (2-Cu(II)) was used as the positive control in these assays.

Structure (SMILES)	MIC ([1]; Escherichia coli R477-100) [µg/mL]	MIC (Escherichia coli 25922) [µg/mL]	MIC [2] [µg/mL]	MIC (Bacillus Subtilis) [µg/mL]	IC50 (E. coli DNA gyrase [3]) [nM]	linearization of supercoiled DNA with DNA gyrase, after Proteinase K (E. coli DNA gyrase [4])	Gram-negative MIC a ([1]; Escherichia coli R477-100) [µg/mL]	Gram-negative MIC b (Escherichia coli 25922) [µg/mL]	Gram-positive MIC c [2] [µg/mL]	Gram-positive MIC d (Bacillus Subtilis) [µg/mL]	antibacterial activity (in words) [5]	DNase activity (cleavage of supercoiled plasmid, form I to form II) [6]	concentration giving almost complete smearing of the DNA (multiply nicked DNA) [6] [µM]	generation of linear DNA with DNA gyrase, without Proteinase K (E. coli DNA gyrase [4])	concentration of maximum linear DNA (bell-shaped profile) (E. coli DNA gyrase [4]) [µM]	Gram-negative MIC, DTT 10 mM ([1]; Escherichia coli R477-100, DTT 10 mM) [µg/mL]	improvement of MIC in the presence of DTT (Escherichia coli 25922; 10 mM DTT vs without DTT, E. coli 25922) [fold]	improvement of MIC in the presence of DTT (Bacillus Subtilis; 10 mM DTT vs without DTT, Gram-positive B. Subtilis) [fold]	improvement of MIC in the presence of DTT ([1]; 10 mM DTT vs without DTT, Gram-negative E. coli R477-100)
O=C(O)c1cn(C2CC2)c2cc(N3CCN(Cc4ccc(CN5CCNCCNCCNCC5)cc4)CC3)c(F)cc2c1=O [Compound 4]	12 to 24 (≈ 19.8 to 39.6 µM)	12 to 24 (≈ 19.8 to 39.6 µM)	6 to 12 (≈ 9.9 to 19.8 µM)	6 to 12 (≈ 9.9 to 19.8 µM)	150 ± 10	significant linearization of DNA	–	–	–	–	–	–	–	–	–	–	–	–	–
O.O=C(O)c1cn(C2CC2)c2cc(N3CCN(Cc4ccc(CCCN5CCNCCNCCNCC5)cc4)CC3)c(F)cc2c1=O.[Co+3].[OH-] [6-Co(III)]	–	–	–	–	–	–	6	3	3	3	slightly higher activity	–	–	–	–	–	–	–	–
O=C(O)c1cn(C2CC2)c2cc(N3CCN(CCCCCCN4CCNCCNCCNCC4)CC3)c(F)cc2c1=O [Compound 1]	12 (≈ 20.5 µM)	24 (≈ 41 µM)	12 (≈ 20.5 µM)	12 (≈ 20.5 µM)	130 ± 30	significant linearization of DNA	–	–	–	–	–	–	–	–	–	–	–	–	–
O.O=C(O)c1cn(C2CC2)c2cc(N3CCN(CCCCCCCN4CCNCCNCCNCC4)CC3)c(F)cc2c1=O.[Cu+2] [2-Cu(II)]	–	–	–	–	240 ± 30	linearized the DNA in a similar manner to the metal-free ligands	12	6	12	12	–	significant cleavage enhancement even in relation to the activity of 1-Cu(II) and 4-Cu(II)	20	able to generate a significant quantity of linear DNA	25	–	–	–	–
O.O=C(O)c1cn(C2CC2)c2cc(N3CCN(Cc4ccc(CN5CCNCCNCCNCC5)cc4)CC3)c(F)cc2c1=O.[Cu+2] [4-Cu(II)]	–	–	–	–	140 ± 20	linearized the DNA in a similar manner to the metal-free ligands	24	12	3	6	–	very significant enhancement in the rates of DNA cleavage	–	able to generate a significant quantity of linear DNA	25	3.0	4	4	–
O.O=C(O)c1cn(C2CC2)c2cc(N3CCN(Cc4ccc(CCCN5CCNCCNCCNCC5)cc4)CC3)c(F)cc2c1=O.[Cu+2] [6-Cu(II)]	–	–	–	–	90 ± 10	–	6	3	3	6	–	only very limited activity	–	–	–	–	–	–	–
O.O=C(O)c1cn(C2CC2)c2cc(N3CCN(CCCCCCN4CCNCCNCCNCC4)CC3)c(F)cc2c1=O.[Cu+2] [1-Cu(II)]	–	–	–	–	100 ± 10	linearized the DNA in a similar manner to the metal-free ligands	24	48	24	48	–	very significant enhancement in the rates of DNA cleavage	> 40	not able to generate linear DNA at any concentration	–	–	–	–	no change whatsoever
O=C(O)c1cn(C2CC2)c2cc(N3CCN(CCCCCCCN4CCNCCNCCNCC4)CC3)c(F)cc2c1=O [Compound 2]	12 (≈ 20 µM)	6 (≈ 10 µM)	12 (≈ 20 µM)	12 (≈ 20 µM)	240 ± 30	significant linearization of DNA	–	–	–	–	–	–	–	–	–	–	–	–	–

Reference: US20230357189A1, “MODIFIED FLUOROQUINOLONES AND USES THEREOF” (Technion Research & Development Foundation Limited, priority 2021, published 2023)
